Test results published in patent US9351955B2, “Compounds and pharmaceutical compositions thereof for the treatment of cystic fibrosis” (Galapagos NV, priority 2013, dated 2016).

Molecular target: T1, CFTR ΔF508 mutant (Homo sapiens, UniProt P13569, DEL508-508)
T1 construct: expressed in transfected cells; host or cells: CFBE41o- (adenoviral transduction)
Experiment: YFP-halide influx assay for the CFTR-ΔF508 mutation (384 well, CFBE41o- cells, FDSS/μCell)
Assay type: cell-based
Settings: forskolin 10.67 μM, fluorescence after 36 seconds, read-out: EC50 measured by YFP-halide influx assay for the CFTR-ΔF508
Text: 6.2. YFP-Halide Influx Assay for the CFTR-ΔF508 Mutation
The YFP halide influx assay measures the functionality of the cystic fibrosis Transmembrane Conductance regulator (CFTR) channels in the cystic fibrosis bronchial epithelium cell line CFBE41o-. The assay is used to evaluate the capacity of compounds to increase the open probability of existing CFTR channels in the membrane. It makes use of the observation that the yellow fluorescent protein (YFP) variant YFP H148Q, I152L has its fluorescence substantially quenched by halide ions like Cl— and I— (Galietta et al., 2001; Nagai et al., 2002).
For this purpose, CFBE410-cells are seeded in 384 well plates (3000 CFBE cells/well). One day after seeding, the CFBE cells are transduced with adenoviral vectors that direct the expression of the CFTR ΔF508 mutant and of the YFP reporter. Cells are incubated at 27° C., 5% CO2 for 24 hours so as to allow for the proper folding and migration to the membrane of the CFTR channel or treated with a CFTR modulator during 24 h at 37° C.
The I— induced quenching of fluorescence is recorded […] immediately after injection of I— for 2 min on an FDSS/μCell (Hamamatsu). The capacity of a compound to increase the channel opening is directly correlated with the decrease in fluorescence, and is expressed as (1−(fluorescence after 36 seconds (F)/fluorescence before injection (F0))) and an EC50 can be derived from a (1−F/F0) vs compound concentration plot.

T1 sequence (P13569 with tags, fused parts or gaps DEL508-508): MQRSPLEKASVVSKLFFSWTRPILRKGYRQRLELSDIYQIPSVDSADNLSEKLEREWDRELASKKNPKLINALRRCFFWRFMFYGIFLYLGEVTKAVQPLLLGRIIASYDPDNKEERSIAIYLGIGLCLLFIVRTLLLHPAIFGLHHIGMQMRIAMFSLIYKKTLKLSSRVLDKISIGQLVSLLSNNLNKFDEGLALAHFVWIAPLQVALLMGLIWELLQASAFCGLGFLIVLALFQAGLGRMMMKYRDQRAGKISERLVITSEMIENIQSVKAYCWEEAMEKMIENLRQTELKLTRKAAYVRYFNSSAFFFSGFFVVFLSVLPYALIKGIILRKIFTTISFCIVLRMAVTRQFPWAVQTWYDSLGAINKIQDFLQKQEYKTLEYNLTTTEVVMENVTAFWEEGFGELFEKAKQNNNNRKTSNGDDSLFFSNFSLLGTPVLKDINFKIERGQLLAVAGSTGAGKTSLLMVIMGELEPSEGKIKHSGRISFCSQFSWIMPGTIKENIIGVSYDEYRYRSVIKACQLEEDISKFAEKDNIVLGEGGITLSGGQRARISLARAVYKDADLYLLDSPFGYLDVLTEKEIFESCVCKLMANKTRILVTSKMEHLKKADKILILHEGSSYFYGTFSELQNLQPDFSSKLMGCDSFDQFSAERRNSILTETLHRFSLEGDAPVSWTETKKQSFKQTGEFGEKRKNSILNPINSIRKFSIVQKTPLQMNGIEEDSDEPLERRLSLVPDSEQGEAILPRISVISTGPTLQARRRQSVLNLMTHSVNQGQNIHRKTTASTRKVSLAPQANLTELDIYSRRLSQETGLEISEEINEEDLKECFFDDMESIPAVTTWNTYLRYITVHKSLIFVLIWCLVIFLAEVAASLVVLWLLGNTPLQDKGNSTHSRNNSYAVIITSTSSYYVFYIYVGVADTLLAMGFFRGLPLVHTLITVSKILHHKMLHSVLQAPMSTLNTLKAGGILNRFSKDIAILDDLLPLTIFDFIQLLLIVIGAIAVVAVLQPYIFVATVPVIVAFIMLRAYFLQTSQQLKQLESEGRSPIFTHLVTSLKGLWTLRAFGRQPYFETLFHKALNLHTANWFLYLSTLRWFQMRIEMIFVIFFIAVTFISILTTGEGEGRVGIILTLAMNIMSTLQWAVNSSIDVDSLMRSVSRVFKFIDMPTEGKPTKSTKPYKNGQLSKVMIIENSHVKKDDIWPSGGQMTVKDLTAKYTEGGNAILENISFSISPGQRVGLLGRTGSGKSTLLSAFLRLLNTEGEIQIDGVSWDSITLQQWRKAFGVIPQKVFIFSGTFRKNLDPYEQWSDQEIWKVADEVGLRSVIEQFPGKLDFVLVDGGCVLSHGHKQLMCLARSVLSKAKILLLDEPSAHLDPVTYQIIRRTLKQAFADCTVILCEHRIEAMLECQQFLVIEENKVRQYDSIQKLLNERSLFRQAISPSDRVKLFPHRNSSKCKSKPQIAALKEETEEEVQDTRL

Row | SMILES | EC50
1 | CC1(C)Cc2c(sc(NC(=O)C3CCOCC3)c2C(N)=O)C(C)(C)O1 [Compound 158, 5,5,7,7-tetramethyl-2-(tetrahydropyran-4-carbonylamino)-4H-thieno[2,3-c]pyran-3-carboxamide] | 301 nM
2 | COCC(C)(O)C(=O)Nc1sc2c(c1C(N)=O)CC(C)(C)OC2(C)C (single isomer, unassigned) [Compound 166] | 116 nM
3 | Cc1cc2nnc(C(=O)Nc3sc4c(c3C(N)=O)CC(C)(C)OC4(C)C)c(C)n2n1 [Compound 149, N-(3-carbamoyl-5,5,7,7-tetramethyl-4H-thieno[2,3-c]pyran-2-yl)-4,7-dimethyl-pyrazolo[5,1-c][1,2,4]triazine-3-carboxamide] | 346 nM
4 | CCOc1cc(C(=O)Nc2sc3c(c2C(N)=O)CC(C)(C)OC3(C)C)n[nH]1 [Compound 54, 5-Ethoxy-1H-pyrazole-3-carboxylic acid (3-carbamoyl-5,5,7,7-tetramethyl-4,7-dihydro-5H-thieno[2,3-c]pyran-2-yl)-amide] | 8.51 nM
5 | CC1(C)Cc2c(sc(NC(=O)C3(C)COC3)c2C(N)=O)C(C)(C)O1 [Compound 147, 5,5,7,7-tetramethyl-2-[(3-methyloxetane-3-carbonyl)amino]-4H-thieno[2,3-c]pyran-3-carboxamide] | 169 nM
6 | CC1(C)Cc2c(sc(NC(=O)C(O)C(F)(F)F)c2C(N)=O)C(C)(C)O1 (stereo not drawn) [Compound 167, 5,5,7,7-tetramethyl-2-[(3,3,3-trifluoro-2-hydroxy-propanoyl)amino]-4H-thieno[2,3-c]pyran-3-carboxamide] | 7.58 nM
7 | COCC(=O)Nc1sc2c(c1C(N)=O)CC(C)(C)OC2(C)C [Compound 160, 2-[(2-methoxyacetyl)amino]-5,5,7,7-tetramethyl-4H-thieno[2,3-c]pyran-3-carboxamide] | 641 nM
8 | COCC(C)(O)C(=O)Nc1sc2c(c1C(N)=O)CC(C)(C)OC2(C)C (single isomer, unassigned) [Compound 165, 2-[[2-hydroxy-3-methoxy-2-methyl-propanoyl]amino]-5,5,7,7-tetramethyl-4H-thieno[2,3-c]pyran-3-carboxamide] | 145 nM
9 | CC1(C)Cc2c(sc(NC(=O)c3cnc4c(c3)OCCO4)c2C(N)=O)C(C)(C)O1 [Compound 145, N-(3-carbamoyl-5,5,7,7-tetramethyl-4H-thieno[2,3-c]pyran-2-yl)-2,3-dihydro-[1,4]dioxino[2,3-b]pyridine-7-carboxamide] | 154 nM
10 | CC(O)CC(=O)Nc1sc2c(c1C(N)=O)CC(C)(C)OC2(C)C (stereo not drawn) [Compound 58, 2-(3-hydroxybutanoylamino)-5,5,7,7-tetramethyl-4H-thieno[2,3-c]pyran-3-carboxamide] | 178 nM
11 | CC1(C)Cc2c(sc(NC(=O)C3(CO)CC3(C)C)c2C(N)=O)C(C)(C)O1 (stereo not drawn) [Compound 91, 2-[[1-(hydroxymethyl)-2,2-dimethyl-cyclopropanecarbonyl]amino]-5,5,7,7-tetramethyl-4H-thieno[2,3-c]pyran-3-carboxamide] | 64.1 nM
12 | CC1(C)Cc2c(sc(NC(=O)[C@H]3C[C@@H]3CO)c2C(N)=O)C(C)(C)O1 [Compound 83, 2-[[(1S,2S)-2-(hydroxymethyl)cyclopropanecarbonyl]amino]-5,5,7,7-tetramethyl-4H-thieno[2,3-c]pyran-3-carboxamide] | 644 nM
13 | CC1(C)Cc2c(sc(NC(=O)c3cnccn3)c2C(N)=O)C(C)(C)O1 [Compound 138, N-(3-carbamoyl-5,5,7,7-tetramethyl-4H-thieno[2,3-c]pyran-2-yl)pyrazine-2-carboxamide] | 52.2 nM
14 | CC(C)(O)CC(=O)Nc1sc2c(c1C(N)=O)CC(C)(C)OC2(C)C [Compound 56, 2-[(3-hydroxy-3-methyl-butanoyl)amino]-5,5,7,7-tetramethyl-4H-thieno[2,3-c]pyran-3-carboxamide] | 79.3 nM
15 | CCC(CO)C(=O)Nc1sc2c(c1C(N)=O)CC(C)(C)OC2(C)C (stereo not drawn) [Compound 86, 2-[2-(hydroxymethyl)butanoylamino]-5,5,7,7-tetramethyl-4H-thieno[2,3-c]pyran-3-carboxamide] | 160 nM
16 | CC1(C)Cc2c(sc(NC(=O)C3CCCO3)c2C(N)=O)C(C)(C)O1 (stereo not drawn) [Compound 162, 5,5,7,7-tetramethyl-2-(tetrahydrofuran-2-carbonylamino)-4H-thieno[2,3-c]pyran-3-carboxamide] | 602 nM
17 | CC1(C)Cc2c(sc(NC(=O)c3n[nH]c4ncccc34)c2C(N)=O)C(C)(C)O1 [Compound 157, N-(3-carbamoyl-5,5,7,7-tetramethyl-4H-thieno[2,3-c]pyran-2-yl)-1H-pyrazolo[3,4-b]pyridine-3-carboxamide] | 33.1 nM
18 | Cn1ncc(C(=O)Nc2sc3c(c2C(N)=O)CC(C)(C)OC3(C)C)c1C(F)F [Compound 118, N-(3-carbamoyl-5,5,7,7-tetramethyl-4H-thieno[2,3-c]pyran-2-yl)-5-(difluoromethyl)-1-methyl-pyrazole-4-carboxamide] | 303 nM
19 | COC(C)(C)C(=O)Nc1sc2c(c1C(N)=O)CC(C)(C)OC2(C)C [Compound 164, 2-[(2-methoxy-2-methyl-propanoyl)amino]-5,5,7,7-tetramethyl-4H-thieno[2,3-c]pyran-3-carboxamide] | 646 nM
20 | COCC(C)(O)C(=O)Nc1sc2c(c1C(N)=O)CC(C)(C)OC2(C)C (stereo not drawn) [Compound 155, 2-[(2-hydroxy-3-methoxy-2-methyl-propanoyl)amino]-5,5,7,7-tetramethyl-4H-thieno[2,3-c]pyran-3-carboxamide] | 71.5 nM

Further compounds by falling EC50, results first:

Row | EC50 | SMILES
21 | 636 nM | CC1(C)Cc2c(sc(NC(=O)C3CCOC3)c2C(N)=O)C(C)(C)O1 (stereo not drawn) [Compound 163, 5,5,7,7-tetramethyl-2-(tetrahydrofuran-3-carbonylamino)-4H-thieno[2,3-c]pyran-3-carboxamide]
22 | 495 nM | CC1(C)Cc2c(sc(NC(=O)C3CC3F)c2C(N)=O)C(C)(C)O1 (single isomer, unassigned) [Compound 43, Cis-2-[[2-fluorocyclopropanecarbonyl]amino]-5,5,7,7-tetramethyl-4H-thieno[2,3-c]pyran-3-carboxamide]
23 | 472 nM | Cc1ccn2c(=O)c(C(=O)Nc3sc4c(c3C(N)=O)CC(C)(C)OC4(C)C)cnc2c1 [Compound 144, N-(3-carbamoyl-5,5,7,7-tetramethyl-4H-thieno[2,3-c]pyran-2-yl)-8-methyl-4-oxo-pyrido[1,2-a]pyrimidine-3-carboxamide]
24 | 387 nM | CC1(C)Cc2c(sc(NC(=O)C3CCC(=O)N3)c2C(N)=O)C(C)(C)O1 (stereo not drawn) [Compound 107, N-(3-carbamoyl-5,5,7,7-tetramethyl-4H-thieno[2,3-c]pyran-2-yl)-5-oxo-pyrrolidine-2-carboxamide]
25 | 313 nM | CC1(C)Cc2c(sc(NC(=O)C(CO)C(C)(C)C)c2C(N)=O)C(C)(C)O1 (stereo not drawn) [Compound 89, 2-[[2-(hydroxymethyl)-3,3-dimethyl-butanoyl]amino]-5,5,7,7-tetramethyl-4H-thieno[2,3-c]pyran-3-carboxamide]
26 | 276 nM | CC1(C)Cc2c(sc(NC(=O)C3CC3F)c2C(N)=O)C(C)(C)O1 (single isomer, unassigned) [Compound 44, Cis-2-[[2-fluorocyclopropanecarbonyl]amino]-5,5,7,7-tetramethyl-4H-thieno[2,3-c]pyran-3-carboxamide]
27 | 202 nM | Cc1oncc1C(=O)Nc1sc2c(c1C(N)=O)CC(C)(C)OC2(C)C [Compound 146, N-(3-carbamoyl-5,5,7,7-tetramethyl-4H-thieno[2,3-c]pyran-2-yl)-5-methyl-isoxazole-4-carboxamide]
28 | 168 nM | Cc1csc(C(=O)Nc2sc3c(c2C(N)=O)CC(C)(C)OC3(C)C)n1 [Compound 131, N-(3-carbamoyl-5,5,7,7-tetramethyl-4H-thieno[2,3-c]pyran-2-yl)-4-methyl-thiazole-2-carboxamide]
29 | 144 nM | Cc1noc(C)c1C(=O)Nc1sc2c(c1C(N)=O)CC(C)(C)OC2(C)C [Compound 140, N-(3-carbamoyl-5,5,7,7-tetramethyl-4H-thieno[2,3-c]pyran-2-yl)-3,5-dimethyl-isoxazole-4-carboxamide]
30 | 33.9 nM | C[C@H](O)C(=O)Nc1sc2c(c1C(N)=O)CC(C)(C)OC2(C)C [Compound 153, 2-[[(2S)-2-hydroxypropanoyl]amino]-5,5,7,7-tetramethyl-4H-thieno[2,3-c]pyran-3-carboxamide]
